Tests used:
human SPPL2a [1] = target: T1, human SPPL2a (Homo sapiens, UniProt Q8TCT8); assay: Sppl2a TL (translocation) imaging assay in U-2 OS cells; format: cell-based; set-up: expressed in transfected cells; conditions: U-2 OS cells expressing human SPPL2a and EGFP-TNFα(aa1-76) NTF substrate; 24 h
T1 sequence (Q8TCT8 26-520): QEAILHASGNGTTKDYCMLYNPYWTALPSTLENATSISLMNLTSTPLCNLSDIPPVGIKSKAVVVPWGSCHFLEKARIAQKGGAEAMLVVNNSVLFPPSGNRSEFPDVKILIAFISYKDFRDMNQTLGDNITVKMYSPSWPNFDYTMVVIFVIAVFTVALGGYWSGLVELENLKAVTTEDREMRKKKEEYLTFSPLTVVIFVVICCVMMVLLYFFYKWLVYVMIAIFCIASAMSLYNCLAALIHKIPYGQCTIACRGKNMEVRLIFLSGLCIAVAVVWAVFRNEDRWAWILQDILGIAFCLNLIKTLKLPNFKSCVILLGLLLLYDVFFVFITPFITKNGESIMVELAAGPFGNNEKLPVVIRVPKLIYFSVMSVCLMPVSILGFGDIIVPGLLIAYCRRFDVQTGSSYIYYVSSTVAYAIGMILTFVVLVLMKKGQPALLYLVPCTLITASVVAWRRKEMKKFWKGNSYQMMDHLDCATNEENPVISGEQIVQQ
In short: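 U-2 OS cells stably expressing human SPPL2a plus doxycycline-induced EGFP-TNFα(aa1-76) NTF, treated 24 h at 37 °C with inhibitor (100 μM–1 nM, 11 points, 0.9% DMSO, 5 μg/mL doxycycline). Imaging of nuclear-minus-cytoplasmic EGFP intensity; % inhibition versus 0.5 μM LY-411,575 and DMSO, IC50 by nonlinear regression; CC50 from cell count.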

human SPPL2a [2] = target: T1, human SPPL2a; assay: Sppl2a RGA (reporter gene assay) in HEK293 cells; format: cell-based; set-up: expressed in transfected cells; host or cells: HEK293 (transient); conditions: NT-TNF-VP16-Gal4 substrate, Gal4-luciferase reporter, 24 h
In short: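 Cleavage of a membrane-bound TNF N-terminal–VP16-Gal4 substrate drives Gal4-luciferase expression in transiently transfected HEK293 cells also expressing human SPPL2a. Compounds incubated 24 h, 37 °C, 5% CO2; luminescence read, normalized and plotted against concentration for IC50.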

SMILES | IC50 (human SPPL2a [1]) [nM] | IC50 (human SPPL2a [2]) [nM]
Cc1cncc(-c2cc(NC(=O)C[C@H](C(=O)N[C@@H]3C(=O)N4CCCN4Cc4ccccc43)C3CC3)n(C)n2)c1 [Example 75, (S)-2 Cyclopropyl-N^4-(1-methyl-3-(5-methylpyridin-3-yl)-1H-pyrazol-5-yl)-N^1-((S)-11-oxo-2,3,10,11-tetrahydro-1H,5H-benzo[d]pyrazolo [1,2-a][1,2]diazepin-10-yl)succinamide] | 5 | 4
C[C@H](CC(=O)Nc1cc(-c2ccc(F)cn2)nn1C)C(=O)N[C@@H]1C(=O)N2CCCN2Cc2ccccc21 [Example 87, (R)-N^4-(3-(5-Fluoropyridin-2-yl)-1-methyl-1H-pyrazol-5-yl)-2-methyl-N^1-((S)-11-oxo-2,3,10,11-tetrahydro-1H,5H-benzo[d]pyrazolo [1,2-a][1,2]diazepin-10-yl)succinamide] | 10 | 10
CCc1cc(-c2cc(NC(=O)C[C@@H](C)C(=O)N[C@@H]3C(=O)N4CCCN4Cc4ccccc43)n(C)n2)no1 [Example 81, (R)-N^4-(3-(5-Ethylisoxazol-3-yl)-1-methyl-1H-pyrazol-5-yl)-2-methyl-N^1-((S)-11-oxo-2,3,10,11-tetrahydro-1H,5H-benzo[d]pyrazolo [1,2-a][1,2]diazepin-10-yl)succinamide] | 8 | 5
Cc1ccc(-c2cc(NC(=O)C[C@@H](C)C(=O)N[C@@H]3C(=O)N4CCCN4Cc4ccccc43)n(C)n2)cn1 [Example 105, (R)-2-Methyl-N^4-(1-methyl-3-(6-methylpyridin-3-yl)-1H-pyrazol-5-yl)-N^1-((S)-11-oxo-2,3,10,11-tetrahydro-1H,5H-benzo[d]pyrazolo [1,2-a][1,2]diazepin-10-yl)succinamide] | 18 | 23
Cc1cncc(-c2cc(NC(=O)C[C@@H](C)C(=O)N[C@@H]3C(=O)N4CCCN4Cc4ccccc43)n(C)n2)c1 [Example 74, (R)-2-Methyl-N^4-(1-methyl-3-(5-methylpyridin-3-yl)-1H-pyrazol-5-yl)-N^1-((S)-11-oxo-2,3,10,11-tetrahydro-1H,5H-benzo[d]pyrazolo [1,2-a][1,2]diazepin-10-yl)succinamide] | 4 | 13
C[C@H](CC(=O)Nc1sc(-c2cnn(C3COC3)c2)nc1Cl)C(=O)N[C@@H]1C(=O)N2CCCN2Cc2ccccc21 [Example 95, (R)-N^4-(4-Chloro-2-(1-(oxetan-3-yl)-1H-pyrazol-4-yl)thiazol-5-yl)-2-methyl-N^1-((S)-11-oxo-2,3,10,11-tetrahydro-1H,5H-benzo[d]pyrazolo [1,2-a][1,2]diazepin-10-yl)succinamide] | 12 | 23
C[C@H](CC(=O)Nc1cc(C(=O)Nc2ccccc2F)nn1C)C(=O)N[C@@H]1C(=O)N2CCCN2Cc2ccccc21 [Example 109, (R)—N^4-(3-((2-fluorophenyl)carbamoyl)-1-methyl-1H-pyrazol-5-yl)-2-methyl-N^1—((S)-11-oxo-2,3,10,11-tetrahydro-1H,5H-benzo[d]pyrazolo[1,2-a][1,2]diazepin-10-yl)succinamide] | 2 | 3
O=C(NC[C@H](C(=O)N[C@@H]1C(=O)N2CCCN2C(=O)c2ccccc21)C(F)(F)F)c1sc(-c2ccc(C(F)(F)F)nc2)nc1Cl [Example 40, 4-Chloro-N-((R)-2-(((S)-5,11-dioxo-2,3,10,11-tetrahydro-1H,5H-benzo[d]pyrazolo [1,2-a][1,2]diazepin-10-yl)carbamoyl)-3,3,3-trifluoropropyl)-2-(6-(trifluoromethyl)pyridin-3-yl)thiazole-5-carboxamide] | 57 | 42
O=C(C[C@H](C(=O)N[C@@H]1C(=O)N2CCCN2C(=O)c2ccccc21)C1CC1)Nc1sc(-c2cnn(C(F)F)c2)nc1Cl [Example 104, (S)-N^4-(4-Chloro-2-(1-(difluoromethyl)-1H-pyrazol-4-yl)thiazol-5-yl)-2-cyclopropyl-N^1-((S)-5,11-dioxo-2,3,10,11-tetrahydro-1H,5H-benzo[d]pyrazolo [1,2-a][1,2]diazepin-10-yl)succinamide] | 17 | 17
C[C@H](Cc1nc2c(Cl)cccc2[nH]1)C(=O)N[C@@H]1C(=O)N2CCCN2Cc2ccccc21 [Example 115, (R)-3-(4-chloro-1H-benzo[d]imidazol-2-yl)-2-methyl-N-((S)-11-oxo-2,3,10,11-tetrahydro-1H,5H-benzo[d]pyrazolo[1,2-a][1,2]diazepin-10-yl)propanamide] | 3970 | 228
Cc1nc(C2=CCOCC2)sc1C(=O)NC[C@H](C(=O)N[C@@H]1C(=O)N2CCCN2Cc2ccccc21)C(F)(F)F [Example 44, 2-(3,6-Dihydro-2H-pyran-4-yl)-4-methyl-N-((R)-3,3,3-trifluoro-2-(((S)-11-oxo-2,3,10,11-tetrahydro-1H,5H-benzo[d]pyrazolo [1,2-a][1,2]diazepin-10-yl)carbamoyl)pro-pyl)thiazole-5-carboxamide] | 67 | 27
Cc1cc(F)cc2nc(C[C@@H](C)C(=O)N[C@@H]3C(=O)N4CCCN4Cc4c(F)cccc43)[nH]c12 [Example 118, (R)-N-((S)-6-fluoro-11-oxo-2,3,10,11-tetrahydro-1 H,5H-benzo[d]pyrazolo[1,2-a][1,2]diazepin-10-yl)-3-(5-fluoro-7-methyl-1H-benzo[d]imidazol-2-yl)-2-methylpropanamide] | 116 | 19
Cc1ccn(C)c1C(=O)NC[C@@H](C)C(=O)N[C@@H]1C(=O)N2CCCN2Cc2ccccc21 [Example 60, 1,3-dimethyl-N-((R)-2-methyl-3-oxo-3-(((S)-11-oxo-2,3,10,11-tetrahydro-1H,5H-benzo[d]pyrazolo [1,2-a][1,2]diazepin-10-yl)amino)propyl)-1H-pyrrole-2-carboxamide] | 580 | 277
Cc1c(F)ccc2nc(C[C@@H](C)C(=O)N[C@@H]3C(=O)N4CCCN4Cc4ccccc43)[nH]c12 [Example 116, (R)-3-(6-fluoro-7-methyl-1H-benzo[d]imidazol-2-yl)-2-methyl-N-((S)-11-oxo-2,3,10,11-tetrahydro-1H,5H-benzo[d]pyrazolo[1,2-a][1,2]diazepin-10-yl)propanamide] | 116 | 13
CC[C@H](CNC(=O)c1sc(C2CC2)nc1C(F)(F)F)C(=O)N[C@@H]1C(=O)N2CC3(CC3)CN2C(=O)c2ccccc21 [Example 59, 2-Cyclopropyl-N-((R)-2-(((S)-5,11-dioxo-10,11-dihydro-1H,3H,5H-spiro[benzo[d]pyr-azolo[1,2-a][1,2]diazepine-2,1′-cyclopropan]-10-yl)carbamoyl)butyl)-4-(trifluoromethyl) thiazole-5-carboxamide] | 555 | 661
C[C@H](CC(=O)Nc1cc(-c2cc(C3CC3)no2)nn1C)C(=O)N[C@@H]1C(=O)N2CCCN2Cc2ccccc21 [Example 71, (R)-N^4-(3-(3-Cyclopropylisoxa-zol-5-yl)-1-methyl-1H-pyrazol-5-yl)-2-methyl-N^1-((S)-11-oxo-2,3,10,11-tetrahydro-1H,5H-benzo[d]pyrazolo [1,2-a][1,2]diazepin-10-yl)succinamide] | 4 | 4
C[C@H](CC(=O)Nc1cc(-c2ccco2)nn1C1CC1)C(=O)N[C@@H]1C(=O)N2CCCN2Cc2ccccc21 [Example 96, (R)-N^4-(1-Cyclopropyl-3-(furan-2-yl)-1H-pyrazol-5-yl)-2-methyl-N^1-((S)-11-oxo-2,3,10,11-tetrahydro-1H,5H-benzo[d]pyrazolo [1,2-a][1,2]diazepin-10-yl)succinamide] | 12 | 28
Cc1nc(-c2ccc(C(F)(F)F)nc2)sc1C(=O)NC[C@H](C(=O)N[C@@H]1C(=O)N2CCCN2C(=O)c2ccccc21)C(F)(F)F [Example 38, N-((R)-2-(((S)-5,11-Dioxo-2,3,10,11-tetrahydro-1H,5H-benzo[d]pyrazolo [1,2-a][1,2]diazepin-10-yl)carbamoyl)-3,3,3-trifluoropropyl)-4-methyl-2-(6-(trifluoromethyl)pyridin-3-yl)thiazole-5-carboxamide] | 54 | 43
Cc1cnoc1C(=O)NC[C@H](C(=O)N[C@@H]1C(=O)N2CCCN2C(=O)c2ccccc21)C(F)(F)F [Example 2, N—((R)-2-(((S)-5,11-dioxo-2,3,10,11-tetrahydro-1H,5H-benzo[d]pyrazolo[1,2-a][1,2]diazepin-10-yl)carbamoyl)-3,3,3-trifluoropropyl)-4-methylisoxazole-5-carboxamide] | 450 | 180

— patent US20230365571A1, “COMPOUNDS AND COMPOSITIONS AS Sppl2a INHIBITORS” (Novartis AG, priority 2020, published 2023)
